Where a SMILES comes first, the peptide text is derived from it. Where no end group is shown, it is not given here. The star is where a group is joined. Palmitoyl = CCCCCCCCCCCCCCCC(=O)*; Lauroyl = CCCCCCCCCCCC(=O)*; C16 = C16 lipid tail
Assays:
[1] = Organ distribution of PA (kidney, liver, lung, spleen, aorta) by LSFM; type: in vivo, Sprague Dawley rats; details: 2 hours post injection (FIG. 11)
Method: (A) Organ distribution of MMP-2 targeting PA 1 in the kidney, liver, lung, spleen, and aorta of Sprague Dawley rats 2 hours post injection. White color represents autofluorescence and red to yellow represents TAMRA-labeled PA. (B) Plotted mean data of the ratio of PA to tissue in each organ.
Targeting specificity of both MMP-2-targeting and elastin-targeting PAs to the aneurysmal aorta, non-aneurysmal suprarenal aorta, and all vital organs is assessed using in vivo imaging system (IVIS), light-sheet fluorescence microscopy (LSFM), and immunofluorescence (IF) microscopy. […] Targeting specificity was determined by measuring pixel count above an assigned threshold. Further, MMP-2 was quantified using IF microscopy and correlated to the amount of MMP-2-targeting PA. When no adverse side effects occurred, the dosage was increased until we achieved saturation of targeting. With this experiment, we confirmed that targeted PA nanomaterials localized to the site of interest and optimal dose for duration studies was determined. Results are shown for 2 hours post PA injection of either 2.5 mg, 5 mg, or 10 mg of MMP-2-targeting PA 1. A higher PA volume to tissue volume ratio is seen in the 5 mg and 10 mg dose than the 2.5 mg dose. The 5 mg dose was selected for further investigation. […]

[2] = test system: aneurysmal aorta (CaCl2-induced AAA of the infrarenal aorta); assay: Targeting of PA nanomaterials to aneurysmal tissue in CaCl2-induced AAA rats (LSFM / fluorescence microscopy after intravenous injection); type: in vivo, Sprague Dawley rats; details: for targeting to the rat aorta (LSFM images): 2 hours post PA injection (FIG. 8A); for Targeting Capability: Table 1, aneurysm targeting
Text: We also validated the CaCl2 model, by inducing aneurysms in 10 male and 7 female Sprague Dawley rats. We measured aortic diameter before AAA induction and then at days 14, 21, and 28 after induction using ultrasound. At day 35, we performed an endpoint surgery and measured the diameter of the aorta, perfusion-fixed the rats, and collected tissue. Tissue was cryo-sectioned and assayed for elastin (Verhoeff-Van Gieson (VVG)), calcium (Von Kossa), and MMP-2 (IF) staining. […] There was no significant difference between male and female rats in aortic dilation (data not shown). Further, we found both elastin fragmentation, and robust MMP-2 protein staining in the aortas exposed to CaCl2, with negligible amounts of fragmentation and MMP-2 in the suprarenal aortas from the same animals (FIG. 2 C+F). Fragmentation of elastin and MMP-2 corresponded to regions of the aorta that were calcified (FIG. 2E).
To evaluate the targeting specificity of the targeted PA nanomaterials, we induced AAA in the infrarenal aorta of Sprague Dawley rats by exposure to CaCl2. After 35 days, a period consistent with aneurysm formation, the targeted PA nanomaterials was injected intravenously. We assessed targeting specificity and duration to aneurysmal sites as well as to all vital organs. We also determined optimal concentration, dose, and co-assembly ratios. Controls included rats injected with saline alone, non-targeted PA nanomaterials, and PA nanomaterials bearing a scrambled targeting sequence.
Experimental Design. Dosage and targeting specificity. To evaluate specific localization of targeted PA nanomaterials, AAA is induced in the infrarenal aorta of male and female Sprague Dawley rats by exposure to CaCl2) (FIG. 4 and FIG. 5A). The features of human AAA can be recapitulated in rodent models. Here, we developed and validated a surgical model of AAA, where CaCl2 is applied to the periadventitial surface of the aorta.^4, 18 While no single model perfectly replicates human AAA, similarities between CaCl2-induced AAA and human aneurysms makes this a useful model. […]
Aortic dilation is measured using ultrasound imaging. […]
Targeting specificity of both MMP-2-targeting and elastin-targeting PAs to the aneurysmal aorta, non-aneurysmal suprarenal aorta, and all vital organs is assessed using in vivo imaging system (IVIS), light-sheet fluorescence microscopy (LSFM), and immunofluorescence (IF) microscopy. […] Targeting specificity was determined by measuring pixel count above an assigned threshold. Further, MMP-2 was quantified using IF microscopy and correlated to the amount of MMP-2-targeting PA. […] With this experiment, we confirmed that targeted PA nanomaterials localized to the site of interest and optimal dose for duration studies was determined. […]

organ distribution (kidney, liver, lung, spleen, aorta) ([1]; listed as MMP-2-targeting PA 1) | organ distribution (kidney, liver, lung, spleen, aorta) ([1]; listed as MMP-2 targeting PA) | Compound | targeting to the rat aorta (LSFM images) [2] | Targeting Capability [2]
predominantly localized to the aorta | predominantly localizes to the aorta | CCCCCCCCCCCCCCCC(=O)N[C@H](C(=O)N[C@H](C(=O)N[C@@H](C)C(=O)N[C@@H](C)C(=O)N[C@@H](CCC(=O)O)C(=O)N[C@@H](CCC(=O)O)C(=O)NCC(=O)NCC(=O)N[C@@H](CCCNC(=N)N)C(=O)NCC(=O)N[C@@H](C)C(=O)N[C@@H](C)C(=O)N1CCC[C@H]1C(=O)N1CCC[C@H]1C(=O)N[C@@H](CCCCN)C(=O)N[C@@H](CCC(N)=O)C(=O)N[C@@H](CCC(=O)O)C(=O)N[C@@H](Cc1ccccc1)C(=O)N[C@@H](CC(C)C)C(=O)N[C@@H](CC(=O)O)C(=O)N[C@H](C(=O)N[C@@H](CCC(=O)O)C(=O)O)[C@@H](C)CC)C(C)C)C(C)C [MMP-2_RGA] (Palmitoyl-VVAAEEGGRGAAPPKQEFLDIE-OH; N-terminus and C-terminus assumed) |  | 
 |  | (C16)VVAAEEGGLWMDWVTEKNIN (C16-VVAAEEGGLWMDWVTEKNIN) [MTI-MMP_LWM, MT1-MMP-targeting peptide amphiphile] | targeting to the rat aorta | Targets aneurysm
 |  | PLSEWRASYNGGEEAAVVK(C12) (PLSEWRASYNGGEEAAVVK(Lauroyl)) [Fragmented Elastin_PLS, fragmented elastin-targeting peptide amphiphile on E2A2V2K(C12) diluent backbone] | targeting to the rat aorta | Does not target
